Assay results: BindingDB's records for doi:10.1016/j.chembiol.2015.08.013 (Aston University, 2015)

Experiments:
Experiment in all cases: TG Activity Assays
[1] = molecular target: T1, Protein-glutamine gamma-glutamyltransferase 6 (Homo sapiens, UniProt O95932)
T1 sequence (O95932 whole entry): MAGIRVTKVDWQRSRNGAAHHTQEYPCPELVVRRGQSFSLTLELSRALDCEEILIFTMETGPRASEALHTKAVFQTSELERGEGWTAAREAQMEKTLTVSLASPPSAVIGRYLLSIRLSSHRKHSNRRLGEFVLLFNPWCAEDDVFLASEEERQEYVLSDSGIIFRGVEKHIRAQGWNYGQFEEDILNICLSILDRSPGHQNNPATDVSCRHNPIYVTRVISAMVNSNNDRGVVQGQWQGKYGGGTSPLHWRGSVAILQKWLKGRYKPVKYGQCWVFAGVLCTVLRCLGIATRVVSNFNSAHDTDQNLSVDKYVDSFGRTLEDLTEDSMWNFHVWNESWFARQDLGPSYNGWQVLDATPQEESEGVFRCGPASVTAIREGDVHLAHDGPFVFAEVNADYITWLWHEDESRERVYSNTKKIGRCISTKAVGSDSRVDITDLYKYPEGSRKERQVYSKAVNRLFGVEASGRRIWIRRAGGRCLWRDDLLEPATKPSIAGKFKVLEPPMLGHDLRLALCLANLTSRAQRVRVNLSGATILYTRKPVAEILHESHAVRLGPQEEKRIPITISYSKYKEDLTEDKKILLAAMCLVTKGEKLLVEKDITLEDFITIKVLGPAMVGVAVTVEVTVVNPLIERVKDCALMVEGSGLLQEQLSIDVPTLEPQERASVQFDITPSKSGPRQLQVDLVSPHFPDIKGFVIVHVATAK
Experimental: (§1) The incorporated biotinylated peptides were measured using horseradish peroxidase-conjugated streptavidin and then measured using o-phenylenediamine dihydrochloride substrates. The absorbance was measured at 490 nm using a microplat

[2] = molecular target: T2, Protein-glutamine gamma-glutamyltransferase K (Homo sapiens, UniProt P22735)
T2 sequence (P22735 whole entry): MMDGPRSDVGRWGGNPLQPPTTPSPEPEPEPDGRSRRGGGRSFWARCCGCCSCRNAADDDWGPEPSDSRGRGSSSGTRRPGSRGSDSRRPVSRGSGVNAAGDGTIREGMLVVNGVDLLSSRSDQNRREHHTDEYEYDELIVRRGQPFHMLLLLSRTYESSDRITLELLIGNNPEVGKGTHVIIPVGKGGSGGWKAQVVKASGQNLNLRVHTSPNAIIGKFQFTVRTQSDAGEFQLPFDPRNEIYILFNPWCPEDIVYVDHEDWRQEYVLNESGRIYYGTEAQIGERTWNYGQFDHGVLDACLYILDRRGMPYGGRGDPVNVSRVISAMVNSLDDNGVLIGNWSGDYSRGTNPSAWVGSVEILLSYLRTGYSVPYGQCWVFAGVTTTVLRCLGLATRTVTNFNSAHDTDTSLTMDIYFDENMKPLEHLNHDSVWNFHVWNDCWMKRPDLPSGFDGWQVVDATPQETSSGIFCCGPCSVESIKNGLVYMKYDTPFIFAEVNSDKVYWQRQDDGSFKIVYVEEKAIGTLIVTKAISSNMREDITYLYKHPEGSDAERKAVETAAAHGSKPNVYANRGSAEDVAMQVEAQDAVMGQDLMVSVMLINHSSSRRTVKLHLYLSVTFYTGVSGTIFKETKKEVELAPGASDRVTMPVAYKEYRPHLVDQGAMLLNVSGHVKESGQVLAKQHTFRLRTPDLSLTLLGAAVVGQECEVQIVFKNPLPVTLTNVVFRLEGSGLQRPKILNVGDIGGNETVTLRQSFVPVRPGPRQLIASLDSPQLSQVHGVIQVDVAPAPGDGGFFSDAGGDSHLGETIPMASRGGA
Experimental: as §1

[3] = molecular target: T3, Protein-glutamine gamma-glutamyltransferase E (Homo sapiens, UniProt Q08188)
T3 sequence (Q08188 whole entry): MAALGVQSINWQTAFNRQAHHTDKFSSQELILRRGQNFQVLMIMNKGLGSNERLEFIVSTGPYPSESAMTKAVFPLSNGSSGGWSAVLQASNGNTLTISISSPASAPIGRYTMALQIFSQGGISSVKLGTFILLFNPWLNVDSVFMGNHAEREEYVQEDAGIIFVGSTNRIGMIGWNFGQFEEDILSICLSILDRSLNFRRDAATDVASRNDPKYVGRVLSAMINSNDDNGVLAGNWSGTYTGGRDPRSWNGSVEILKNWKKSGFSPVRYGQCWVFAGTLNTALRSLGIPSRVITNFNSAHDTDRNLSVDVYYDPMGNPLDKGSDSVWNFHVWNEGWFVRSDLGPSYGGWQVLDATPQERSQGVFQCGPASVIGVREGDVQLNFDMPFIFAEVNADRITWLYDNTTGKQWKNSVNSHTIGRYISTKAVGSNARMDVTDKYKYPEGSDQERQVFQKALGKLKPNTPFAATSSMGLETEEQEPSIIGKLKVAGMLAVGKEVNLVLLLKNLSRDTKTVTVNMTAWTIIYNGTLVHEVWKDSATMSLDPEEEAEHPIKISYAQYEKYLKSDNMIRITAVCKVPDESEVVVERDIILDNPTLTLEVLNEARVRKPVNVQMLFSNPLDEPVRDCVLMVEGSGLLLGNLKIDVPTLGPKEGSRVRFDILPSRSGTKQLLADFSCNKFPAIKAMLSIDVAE
Experimental: as §1

[4] = molecular target: T4, Protein-glutamine gamma-glutamyltransferase 2 (Homo sapiens, UniProt P21980)
T4 sequence (P21980 whole entry): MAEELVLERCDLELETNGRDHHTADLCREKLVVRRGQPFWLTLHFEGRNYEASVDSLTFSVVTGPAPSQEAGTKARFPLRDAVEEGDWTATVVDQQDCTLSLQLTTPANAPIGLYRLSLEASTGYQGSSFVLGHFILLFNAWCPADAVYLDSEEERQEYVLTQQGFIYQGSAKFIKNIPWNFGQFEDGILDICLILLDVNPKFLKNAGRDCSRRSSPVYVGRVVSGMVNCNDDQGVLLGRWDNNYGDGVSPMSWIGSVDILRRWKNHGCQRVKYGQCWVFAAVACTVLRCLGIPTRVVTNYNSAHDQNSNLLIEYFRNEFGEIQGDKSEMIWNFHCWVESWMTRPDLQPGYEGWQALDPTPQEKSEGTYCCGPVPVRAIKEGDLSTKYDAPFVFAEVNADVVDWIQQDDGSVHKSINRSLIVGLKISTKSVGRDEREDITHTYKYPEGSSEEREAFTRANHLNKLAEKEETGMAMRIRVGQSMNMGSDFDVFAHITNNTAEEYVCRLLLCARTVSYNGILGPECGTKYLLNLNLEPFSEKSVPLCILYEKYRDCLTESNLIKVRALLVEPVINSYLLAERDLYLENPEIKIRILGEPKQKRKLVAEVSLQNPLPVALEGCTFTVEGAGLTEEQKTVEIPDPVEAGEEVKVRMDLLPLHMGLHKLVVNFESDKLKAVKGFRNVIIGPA
Experimental: as §1

What does the source list for `C=CC(=O)NCC(=O)N1CCN(C(=O)OCC23CC4CC(CC(C4)C2)C3)CC1` [1-Adamantylmethyl 4-[2-(prop-2-enoylamino)acetyl]piperazine-1-carboxylate (3f)]?
IC50 [1]: > 10 µM; IC50 [2]: > 100 µM; IC50 [3]: > 100 µM

Which IC50 [2] does the source give for `C=CC(=O)NCC(=O)N1CCN(C(=O)OCCC23CC4CC(CC(C4)C2)C3)CC1` [2-(1-Adamantyl)ethyl 4-[2-(prop-2-enoylamino)acetyl]piperazine-1-carboxylate (3g)] here?
The IC50 was greater than 100 µM.

What about the IC50 [3] of the same molecule?
Its IC50 is greater than 100 µM.

And the IC50 [4]?
The IC50 was 900 nM.

How did the IC50 [2] turn out when `O=C(CBr)NCC(=O)N1CCN(C(=O)OCCC23CC4CC(CC(C4)C2)C3)CC1` [2-(1-Adamantyl)ethyl 4-[2-[(2-bromoacetyl)amino]acetyl]piperazine-1-carboxylate (6g)] was run?
The IC50 was 3 µM.

What about the IC50 [3] of the same molecule?
Its IC50 is 50 µM.

With `C=CC(=O)NCC(=O)N1CCN(C(=O)OCc2ccc3ccccc3c2)CC1` [2-Naphthylmethyl 4-[2-(prop-2-enoylamino)acetyl]piperazine-1-carboxylate (3c)] as the molecule, how does the IC50 [2] read?
Its IC50 is greater than 100 µM.

What about the IC50 [3] of the same molecule?
The IC50 was greater than 100 µM.

What about the IC50 [4] of the same molecule?
Its IC50 is 440 nM.

With `COC(=O)c1ccc2cc(COC(=O)N3CCN(C(=O)CNC(=O)CBr)CC3)ccc2c1` [(6-Methoxycarbonyl-2-naphthyl)methyl 4-[2-[(2-bromoacetyl)amino]acetyl]piperazine-1-carboxylate (6d)] as the molecule, how does the IC50 [2] read?
Its IC50 is 5 µM.

What about the IC50 [3] of the same molecule?
The IC50 was 65 µM.

And the IC50 [4]?
The IC50 was 15 nM.

How did the IC50 [2] turn out when `C[S+](C)CC(=O)NCC(=O)N1CCN(C(=O)OCc2ccc3ccccc3c2)CC1` [Dimethyl-[2-[[2-[4-(2-naphthylmethoxycarbonyl)piperazin-1-yl]-2-oxo-ethyl]amino]-2-oxo-ethyl]sulfonium bromide (1c)] was run?
Its IC50 is greater than 100 µM.

And the IC50 [3]?
The IC50 was greater than 100 µM.

What about the IC50 [4] of the same molecule?
The IC50 was 1070 nM.

How did the IC50 [2] turn out when `O=C(CBr)NCC(=O)N1CCN(C(=O)C23CC4CC(CC(C4)C2)C3)CC1` [N-[2-[4-(adamantane-1-carbonyl)piperazin-1-yl]-2-oxo-ethyl]-2-bromo-acetamide (6e)] was run?
Its IC50 is 1 µM.

And the IC50 [3]?
The IC50 was 70 µM.

What about the IC50 [4] of the same molecule?
Its IC50 is 3.9 nM.

With `C=CC(=O)NCC(=O)N1CCN(C(=O)C23CC4CC(CC(C4)C2)C3)CC1` [N-[2-[4-(adamantane-1-carbonyl)piperazin-1-yl]-2-oxo-ethyl]prop-2-enamide (3e)] as the molecule, how does the IC50 [1] read?
Its IC50 is 2 µM.

What about the IC50 [2] of the same molecule?
Its IC50 is 2.2 µM.

What about the IC50 [3] of the same molecule?
Its IC50 is 11 µM.

And the IC50 [4]?
The IC50 was 125 nM.

Which IC50 [2] does the source give for `C=CC(=O)NCC(=O)N1CCN(S(=O)(=O)c2cccc3c(N(C)C)cccc23)CC1` [N-[2-[4-[[5-(dimethylamino)-1-naphthyl]sulfonyl]piperazin-1-yl]-2-oxo-ethyl]prop-2-enamide (3h)] here?
Its IC50 is 25 µM.

What about the IC50 [3] of the same molecule?
The IC50 was 20 µM.

For `C[S+](C)CC(=O)NCC(=O)N1CCN(C(=O)OCc2ccccc2)CC1` [[2-[[2-(4-Benzyloxycarbonylpiperazin-1-yl)-2-oxo-ethyl]amino]-2-oxo-ethyl]-dimethylsulfonium bromide (1a)], which IC50 [2] is on record?
The IC50 was greater than 100 µM.

What about the IC50 [3] of the same molecule?
The IC50 was greater than 100 µM.

And the IC50 [4]?
Its IC50 is 1400 nM.

`C[S+](C)CC(=O)NCC(=O)N1CCN(C(=O)OC(C)(C)C)CC1` [[2-[[2-(4-tert-Butoxycarbonylpiperazin-1-yl)-2-oxo-ethyl]amino]-2-oxo-ethyl]-dimethylsulfonium bromide (1m)] was tested. Which IC50 [2] did it give?
Its IC50 is greater than 100 µM.

And the IC50 [3]?
The IC50 was greater than 100 µM.

And the IC50 [4]?
Its IC50 is 273 nM.

`C[S+](C)CC(=O)NCC(=O)N1CCN(C(=O)OCC23CC4CC(CC(C4)C2)C3)CC1` [[2-[[2-[4-(1-Adamantylmethoxycarbonyl)piperazin-1-yl]-2-oxo-ethyl]amino]-2-oxoethyl]-dimethyl-sulfonium bromide (1f)] was tested. Which IC50 [1] did it give?
Its IC50 is greater than 10 µM.

What about the IC50 [2] of the same molecule?
Its IC50 is greater than 100 µM.

What about the IC50 [3] of the same molecule?
The IC50 was greater than 100 µM.

And the IC50 [4]?
Its IC50 is 775 nM.

`C[S+](C)CC(=O)NCC(=O)N1CCN(C(=O)C23CC4CC(CC(C4)C2)C3)CC1` [[2-[[2-[4-(Adamantane-1-carbonyl)piperazin-1-yl]-2-oxo-ethyl]amino]-2-oxo-ethyl]-dimethyl-sulfonium bromide (1e)] was tested. Which IC50 [1] did it give?
Its IC50 is greater than 10 µM.

What about the IC50 [2] of the same molecule?
The IC50 was greater than 100 µM.

What about the IC50 [3] of the same molecule?
The IC50 was greater than 100 µM.

And the IC50 [4]?
Its IC50 is 889 nM.

`COC(=O)c1ccc(COC(=O)N2CCN(C(=O)CNC(=O)C[S+](C)C)CC2)cc1` [[2-[[2-[4-[(4-Methoxycarbonylphenyl)methoxycarbonyl]piperazin-1-yl]-2-oxo-ethyl]-amino]-2-oxo-ethyl]-dimethyl-sulfonium bromide (1b)] was tested. Which IC50 [2] did it give?
Its IC50 is greater than 100 µM.

What about the IC50 [3] of the same molecule?
The IC50 was greater than 100 µM.

What about the IC50 [4] of the same molecule?
Its IC50 is 3300 nM.

With `CN(C)c1cccc2c(S(=O)(=O)N3CCN(C(=O)CNC(=O)C[S+](C)C)CC3)cccc12` [[2-[[2-[4-[[5-(Dimethylamino)-1-naphthyl]sulfonyl]piperazin-1-yl]-2-oxo-ethyl]amino]-2-oxo-ethyl]-dimethyl-sulfonium bromide (1h)] as the molecule, how does the IC50 [1] read?
Its IC50 is greater than 10 µM.

And the IC50 [2]?
The IC50 was greater than 100 µM.

And the IC50 [3]?
The IC50 was greater than 100 µM.
